Assays:
[1] = assay type: in vivo, human; settings: FIG. 4
[2] = tested on: depressed patients; assay: Hamilton-Depression scale, 17-item version (HamD), celecoxib add-on to reboxetine trial; assay type: in vivo, human; settings: 400 mg/day add-on to reboxetine, 6 weeks; ANOVA, Greenhouse-Geisser-corrected F=3.220; df 2.434; p=0.035; FIG. 10
Protocol: The psychopathology of the patients was assessed by raters, who had undergone a training program, using the Hamilton-Depression scale, 17-item version (HamD), 24 Assessment of psychopathology and other examinations were performed at weekly intervals.
For statistics, analysis of variance was used for the HamD scale. The degrees of freedom for the within-subjects comparisons were corrected for deviance from sphericity (Greenhouse-Geisser). Post-hoc t tests were used for the weekly comparison of HamD scores. An intent to treat analysis was performed using the “last observation carried forward” (LOCF) procedure.

[3] = tested on: schizophrenic patients
Protocol: The psychopathology of the patients was assessed using the positive and negative syndrome scale (PANSS) (Kay et al., Schizophr. Bull. 1987, 13: 261-276). […] The statistics were performed according to the criterion of “last observation carried forward” (LOCF), i.e., the last PANSS scores of the patients who dropped out before the end of the study were carried forward to all subsequent observation days. For the comparison of the main efficacy parameter, the mean change in the PANSS between the two treatment groups, t-tests for independent samples were employed. […] For all other comparisons, two-tailed t-tests were used.

[4] = tested on: depressed patients; assay: Drop-outs and side-effects in the celecoxib add-on to reboxetine trial; settings: celecoxib 400 mg/day add-on to reboxetine, n = 20
[5] = tested on: DBA/2Ola mice; assay: Forced swim test; assay type: in vivo
Excerpt: Various behavioral test paradigms have been developed for evaluating the antidepressant properties of novel drugs in animals. One of the most reliable and specific paradigm is the forced swim test which has been successfully used to determine the effectiveness of antidepressants, evaluate new pharmaceutical compounds and validate animal models of depression (Porsolt et al. (1977) Arch. Int. Pharmacodym. 229:327-336; Porsolt (2000) Rev. Neurosci. 11:53-58; Rénńric et al. (2002)Behav. Brain Res. 136:521-532; Page et al. (2003) Psychopharmacology 165:194-201; Kelliher et al. (2003) Psychoneuroendocrinology 28:332-347). The test consists of placing a mouse for a period of 5 minutes into a glass cylinder containing a water depth of at least 15 cm. Under such circumstances, a mouse cannot touch the bottom of the cylinder and is thus forced to swim. Time, latency and frequency of struggling/swimming versus floating are scored as behavioral parameters. Floating (i.e. movements made only for keeping balance and breath) can be interpreted as a depression-like behavior that reflects either a failure of persistent escape-directed behavior (i.e. behavioral despair) or the development of passive behavior that disengages the animal from active forms of coping with stress stimuli. By contrast, increased struggling (i.e. vigorous attempts to escape) and swimming indicates active coping behavior and can be interpreted as an opposite to depression-like behavior.
The antidepressant activity of rofecoxib was assessed in animals according to the forced swim test. Briefly, rofecoxib was given orally by gavage to mice either in a single acute administration of 10 mg or in a repetitive chronic administration of 4 mg per day (2 mg at 9:00 in the morning, 2 mg at 18:00 in the evening) for 28 days. Control animals received a negative control consisting of water only. The forced swim test was performed 4 hour after the last administration of rofecoxib. […] All observed results were confirmed statistically using the one-way ANOVA test.
(§1) The antidepressant activity of valdecoxib was assessed in DBA/2Ola mice according to the forced swim test. Briefly, chronic administration of valdecoxib was performed by oral gavage for 28 days at a concentration of 4 mg per day (2 mg at 9:00 in the morning, 2 mg at 18:00 in the evening) and 20 mg per day (10 mg at 9:00 in the morning, 10 mg at 18:00 in the evening). Control animals received a placebo consisting of water only. The behavior of individual animals was assessed using the forced swim test 24 hours after the last administration of valdecoxib. A pre-exposure of 5 minutes to the test was done 4 hours after the last administration of valdecoxib. All observed results were confirmed statistically using the one-way ANOVA test.
as §1, with “etoricoxib” for “valdecoxib”, “DBA/201a” for “DBA/2Ola”, “etoricoxib” for “chronic administration of valdecoxib”, “chronically administered to mice” for “performed”, “etoricoxib.” for “valdecoxib.”
The antidepressant activity of the COX-2 inhibitor Cimicoxib was assessed in DBA/2Ola mice using the forced swim test. Briefly, chronic administration of cimicoxib was performed by oral gavage to mice for 28 days at a concentration of 2 or 10 mg per kg bodyweight per day (1 or 5 mg at 9:00 in the morning, 1 or 5 mg at 18:00 in the evening). Control animals received a placebo consisting of water only. […]

[6] = chronic oral gavage 28 days, 2 or 10 mg per kg bodyweight per day, test 4 hours after the last administration, FIG. 9
[7] = chronic oral gavage 28 days, 4 mg per day and 20 mg per day, test 24 hours after the last administration
[8] = chronic oral 4 mg per day for 28 days, test 4 hour after the last administration, FIG. 6
[9] = single acute oral administration of 10 mg, test 4 hour after administration, FIG. 6

For `Cc1nc2n(c(=O)c1CCN1CCC(c3noc4cc(F)ccc34)CC1)CCCC2O` (centres unmarked) [9-OH-risperidone], the “differences in the plasma levels between risperidone-celecoxib and risperidone-placebo treatment” value [1] was “without statistical significance”.

With `Cc1ccc(-c2cc(C(F)(F)F)nn2-c2ccc(S(N)(=O)=O)cc2)cc1` [celecoxib] the “comparison of HamD scores during therapy with celecoxib or placebo” value [2] was “advantage of celecoxib-group”, the “PANSS items lack of contact, emotional isolation, passive-apathic isolation, social withdrawal, depression, motor retardation” value ([3]; analysis of items discriminating good celecoxib-responders from the placebo group) was “therapeutic effects” and the “PANSS items subsumed under the label agitation” value ([3]; factor analysis, not seen with placebo) was “good therapeutic response”. For the same molecule, the “cardiovascular events or side-effects, clinically and by ECG surveillance” value [4] was “no cardiovascular events or side-effects were observed” and the “patients excluded or refusing further treatment due to a lack of therapeutic efficacy” value [4] was “Five”.

For `COc1ccc(-c2c(Cl)ncn2-c2ccc(S(N)(=O)=O)cc2)cc1F` [cimicoxib], the floating time [5, 6] was “decrease” and the “struggling or swimming times” value [5, 6] was “statistically significant increase”.

For `Cc1nc2n(c(=O)c1CCN1CCC(c3noc4cc(F)ccc34)CC1)CCCC2` [risperidone], the “differences in the plasma levels between risperidone-celecoxib and risperidone-placebo treatment” value [1] was “without statistical significance”.

With `Cc1onc(-c2ccccc2)c1-c1ccc(S(N)(=O)=O)cc1` [valdecoxib] the floating time [5, 7] was “decreasing” and the “struggling or swimming times” value [5, 7] was “statistically increased”.

For etoricoxib, the floating time [5, 7] was “decreasing” and the “struggling or swimming times” value [5, 7] was “statistically increased or showed a tendency to increase”.

In the case of rofecoxib, the floating time [5, 8] is reported as “decreasing”, the “struggling or swimming times” value [5, 8] is reported as “statistically increased” and the floating time [5, 9] is reported as “decreasing”. For the same molecule, the “struggling or swimming times” value [5, 9] was “statistically increased”.
